The text below walks through data of patent US20250243219A1, “MACROCYCLIC COMPOUNDS AND USES THEREOF” (Cypralis Limited, priority 2022, published 2025).

One experiment addresses cyclophilin D (Homo sapiens (Human), UniProt P30405). As to the kind of experiment: Functional peptidyl prolyl isomerase (PPIase) spectrophotometric assay, cyclophilin D. Format: biochemical. The note with it: second value of CypA/D cell; read-out: Ki CypD. From the text:
(§1) Cyclophilins are enzymes that catalyse the cis-trans isomerisation of peptide bonds to the amino acid proline. This event is important in many biological processes, including protein folding and signal transduction. […] The method to measure this activity and its inhibition is similar to that described by Jankowski (Analytical Biochemistry, 252, 2, 299-307 (1997)). The assay measures the cis to trans isomerisation of a peptide substrate catalysed by a PPlase enzyme using a UV/Vis spectrophotometer. This assay is a manual single cuvette-based assay. A first order rate equation is fitted to the absorbance data to obtain a rate constant. The catalytic rate is calculated from the enzymatic rate minus the background rate. The Ki (the concentration required to produce half maximum inhibition) for an inhibitor is obtained from the rate constant plotted against the inhibitor concentration. Typically, a 6-point dose response curve is obtained from duplicates and a Ki determined. Data are given in Table 5 as Ki [nM] for cyclophilins A and D, expressed in column 2 of Table 5 as Ki (cypA)/Ki (cypD).

Another experiment has as its target cyclophilin A (Homo sapiens (Human), UniProt P62937). As to the kind of experiment: Functional peptidyl prolyl isomerase (PPIase) spectrophotometric assay, cyclophilin A. The experiment is classed as biochemical. The conditions noted are these: first value of CypA/D cell.
Source text: as §1

The subject of experiment [1] is permeabilised HepG2 cells. As to the kind of experiment: Calcium retention capacity (CRC) assay in permeabilised HepG2 cells (MPTP opening). The experiment is classed as cell-based, human. Further details: CRC [10 μM]: unit not given here. The note with it: compound at 10 μM; for CRC [10 μM]: digitonin permeabilised HepG2 cells; for CRC [10 μM] (ratio vs CsA): normalised to cyclosporin A, value in brackets. On the procedure:
The use of permeabilised cells means that inhibitory compounds that may not normally enter non-permeabilised cells are more likely to be active.
The calcium retention capacity (CRC) is a measure of the capability of mitochondria to retain calcium, primarily in the form of calcium phosphates, in the mitochondrial matrix.
In a CRC assay, the calcium indicator Calcium Green-5N (InVitrogen) is utilized. […] The assay is carried out in HepG2 (human hepatocellular carcinoma) cells which are digitonin permeabilized. Trains of calcium pulses (typically 5 μM additions) are added which results in a sudden increase in fluorescence which is then reduced by mitochondrial buffering. The cells will reach a point at which the calcium addition is no longer buffered, an indication that the MPTP has opened (mitochondrial permeability transition).
The experiment is performed with and without inhibitor. A compound that acts to inhibit the mitochondrial pore opening will result in a greater requirement for calcium to reach the transition point. The results are normalised to a positive control (cyclosporin A) in each experiment. The results are shown in column 3 of Table 5 as CRC [10 μM] (ratio vs CsA). The method of digitonin permeabilised whole cell CRC assay is similar to that used by Chiara et al. (PLoS One, March, 3, 3, e1852 (2008)).

Chain of cyclophilin D (P30405 30-207, species assumed): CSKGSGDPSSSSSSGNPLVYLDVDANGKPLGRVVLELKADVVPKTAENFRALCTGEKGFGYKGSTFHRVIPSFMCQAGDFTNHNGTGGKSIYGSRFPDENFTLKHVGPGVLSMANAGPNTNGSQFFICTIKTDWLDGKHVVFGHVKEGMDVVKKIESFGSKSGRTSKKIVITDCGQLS
Chain of cyclophilin A (P62937 whole entry, species assumed): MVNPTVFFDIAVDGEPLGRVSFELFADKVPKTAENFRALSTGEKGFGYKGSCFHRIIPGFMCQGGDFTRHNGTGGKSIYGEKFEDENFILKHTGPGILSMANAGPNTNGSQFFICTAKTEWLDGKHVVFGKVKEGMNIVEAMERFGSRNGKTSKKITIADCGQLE

In general, Ki refers to the dissociation constant of the complex between target and ligand, obtained from inhibition or displacement. Turning to `CC(C)[C@@H]1OC(=O)C(C)(C)/C=C/c2ccc3ccc(nc3c2)N(CCCO)NC(=O)[C@@H]2CCCN(N2)C(=O)[C@H](C)NC1=O` [Compound (7)], the Ki at cyclophilin D is 8.1 nM; on cyclophilin A, 36.7 nM.

Take `C[C@@H]1NC(=O)[C@H](Cc2ccc(O)cc2)OC(=O)C(C)(C)/C=C/c2ccc3ccc(nc3c2)N(C)NC(=O)[C@@H]2CCCN(N2)C1=O` [Compound (42)]: the Ki on cyclophilin D came out at 5.8 nM; at cyclophilin A it was 1.2 nM. Further, the “CRC [10 μM]” value in experiment [1] is given as 25. Moreover, the “CRC [10 μM] (ratio vs CsA)” value in experiment [1] worked out at 0.8.

`CC(C)[C@@H]1OC(=O)C(C)(C)/C=C/c2ccc3ccc(nc3c2)N2CCCN2C(=O)[C@@H]2CCCN(N2)C(=O)[C@H](C)NC1=O` [Compound (8)]: the Ki on cyclophilin D came out at 15 nM; on cyclophilin A, 13.9 nM.

Take `CC(C)[C@@H]1OC(=O)C(C)(C)/C=C/c2ccc3ccc(nc3c2)N(C)NC(=O)[C@@H]2CCCN(N2)C(=O)[C@@H](Cc2ccccc2)NC1=O` [Compound (77)]: the Ki on cyclophilin D came out at 700 nM. For the same compound, in experiment [1], the “CRC [10 μM]” value was 15 and the “CRC [10 μM] (ratio vs CsA)” value came to 0.39.

On to `CC(C)[C@@H]1OC(=O)C(C)(C)/C=C/c2ccc3ncc(nc3c2)N(C)NC(=O)[C@@H]2CCCN(N2)C(=O)[C@H](C)NC1=O` [Compound (4)], for which the figures for the Ki on cyclophilin D and on cyclophilin A were 13 nM and 3.3 nM, respectively. The “CRC [10 μM]” value in experiment [1] was 16.4.

Regarding `C[C@@H]1NC(=O)[C@H](CC2CCNCC2)OC(=O)C(C)(C)/C=C/c2ccc3ccc(nc3c2)N(C)NC(=O)[C@@H]2CCCN(N2)C1=O` [Compound (58)], at cyclophilin D, the Ki was 54.5 nM. At cyclophilin A, this compound returned an inhibition constant (Ki) of 80 nM. In addition, in experiment [1], the “CRC [10 μM]” value is 8.3 and the “CRC [10 μM] (ratio vs CsA)” value was 0.38.

On to `CC(C)C(=O)N1CCC2(/C=C/c3ccc4ccc(nc4c3)N(C)NC(=O)[C@@H]3CCCN(N3)C(=O)[C@H](C)NC(=O)[C@H](C(C)C)OC2=O)CC1` [Compound (15)], for which the Ki at cyclophilin D was found to be 9.9 nM. This compound had a Ki at cyclophilin A of 1.7 nM. Moreover, in experiment [1], the “CRC [10 μM]” value is reported as 38 and the “CRC [10 μM] (ratio vs CsA)” value was determined as 1.

As for `CC(=O)N1NC(=O)[C@@H]2CCCN(N2)C(=O)[C@H](C)NC(=O)[C@H](C(C)C)OC(=O)C(C)(C)/C=C/c2ccc3ccc1nc3c2` [Compound (10)], the Ki at cyclophilin D turned out to be 8.7 nM; on cyclophilin A, 5.3 nM.

With `CC(C)[C@H]1CC(=O)C(C)(C)/C=C/c2ccc3ccc(nc3c2)N(C)NC(=O)[C@@H]2CCCN(N2)C(=O)[C@H](C)NC1=O` [Compound (82)], the Ki at cyclophilin D came to 150 nM; at cyclophilin A it was 320 nM.

For `CC(C)[C@@H]1OC(=O)C(C)(C)/C=C/c2ccc3ccc(nc3c2)N(C)NC(=O)[C@@H]2CCCN(N2)C(=O)[C@H](Cc2ccncc2)NC1=O` [Compound (78)], the Ki at cyclophilin D came to 360 nM. Further, in experiment [1], the “CRC [10 μM]” value is >10,000.

As to `C[C@@H]1NC(=O)[C@H](C2CCOCC2)OC(=O)C(C)(C)/C=C/c2ccc3ccc(nc3c2)N(C)NC(=O)[C@@H]2CCCN(N2)C1=O` [Compound (59)], at cyclophilin D, the Ki was determined as 38 nM. Besides, affinity on cyclophilin A was put at a Ki of 37 nM. Moreover, in experiment [1], the “CRC [10 μM]” value was determined as 17.5 and the “CRC [10 μM] (ratio vs CsA)” value worked out at 0.85.

On to `C[C@@H]1NC(=O)[C@H](C2CCCC2)CC(=O)C(C)(C)/C=C/c2ccc3ccc(nc3c2)N(C)NC(=O)[C@@H]2CCCN(N2)C1=O` [Compound (24)], for which the Ki is 12 nM on cyclophilin D and 19 nM at cyclophilin A.

On to `CC(C)[C@H]1OC(=O)C(C)(C)/C=C/c2ccc3ccc(nc3c2)N(C)NC(=O)[C@@H]2CCCN(N2)C(=O)[C@H](C)NC1=O` [Compound (3)], for which the Ki on cyclophilin D worked out at 1300 nM; at cyclophilin A, 550 nM. In addition, the “CRC [10 μM] (ratio vs CsA)” value in experiment [1] is recorded as 0.5.

With `CC(=O)N1CCC[C@@H](C[C@@H]2OC(=O)C(C)(C)/C=C/c3ccc4ccc(nc4c3)N(C)NC(=O)[C@@H]3CCCN(N3)C(=O)[C@H](C)NC2=O)C1` [Compound (29)], the Ki at cyclophilin D worked out at 170 nM. Also, the Ki on cyclophilin A was found to be 51 nM. Further, in experiment [1], the “CRC [10 μM]” value is 20 and the “CRC [10 μM] (ratio vs CsA)” value is listed as 0.67.

For `CC(C)[C@@H]1OC(=O)C2(/C=C/c3ccc4ccc(nc4c3)N(C)NC(=O)[C@@H]3CCCN(N3)C(=O)[C@H](C)NC1=O)COCOC2` [Compound (18)], the Ki on cyclophilin D amounted to 370 nM. At cyclophilin A, the Ki is 260 nM. Moreover, in experiment [1], the “CRC [10 μM]” value is reported as 10 and the “CRC [10 μM] (ratio vs CsA)” value worked out at 0.33.

Consider `CC(C)[C@H]1C(=O)N[C@@H](C)C(=O)N2CCC[C@H](N2)C(=O)NN(C)c2ccc3ccc(cc3n2)/C=C/C(C)(C)CN1C` [Compound (23)], for which the Ki on cyclophilin D turned out to be 260 nM; on cyclophilin A, 92 nM. Besides, the “CRC [10 μM]” value in experiment [1] was 12.5. The “CRC [10 μM] (ratio vs CsA)” value in experiment [1] came out at 0.38.

On to `C[C@@H]1NC(=O)[C@@H](CC2CCCN(C)C2)OC(=O)C(C)(C)/C=C/c2ccc3ccc(nc3c2)N(C)NC(=O)[C@@H]2CCCN(N2)C1=O` (some centres unmarked) [Compound (28)], for which the Ki at cyclophilin A turned out to be 5900 nM. For the same compound, in experiment [1], the “CRC [10 μM]” value is recorded as 5 and the “CRC [10 μM] (ratio vs CsA)” value is on record as 0.17.

Consider `CC(C)[C@@H]1NCC(C)(C)/C=C/c2ccc3ccc(nc3c2)N(C)NC(=O)[C@@H]2CCCN(N2)C(=O)[C@H](C)NC1=O` [Compound (20)], for which the Ki at cyclophilin D is 140 nM. The affinity at cyclophilin A, expressed as Ki, was 100 nM. Further, in experiment [1], the “CRC [10 μM]” value was 22.5 and the “CRC [10 μM] (ratio vs CsA)” value was 0.57.

On to `CC(C)C(=O)N1CCN(C[C@@H]2OC(=O)C(C)(C)/C=C/c3ccc4ccc(nc4c3)N(C)NC(=O)[C@@H]3CCCN(N3)C(=O)[C@H](C)NC2=O)C[C@@H]1C` [Compound (45)], for which the Ki on cyclophilin D was 140 nM. Also, the affinity at cyclophilin A, expressed as Ki, was 61 nM. Also, in experiment [1], the “CRC [10 μM]” value worked out at 15 and the “CRC [10 μM] (ratio vs CsA)” value was 0.60.

On to `C[C@@H]1NC(=O)[C@H](CN2CCCCC2)OC(=O)C(C)(C)/C=C/c2ccc3ccc(nc3c2)N(C)NC(=O)[C@@H]2CCCN(N2)C1=O` [Compound (44)], for which the Ki at cyclophilin D turned out to be 140 nM. For the same compound, the affinity at cyclophilin A corresponds to a Ki of 590 nM. In experiment [1], the “CRC [10 μM]” value came to 5 and the “CRC [10 μM] (ratio vs CsA)” value came to 0.33.

`C[C@@H]1NC(=O)[C@@H](CC2CCCNC2)OC(=O)C(C)(C)/C=C/c2ccc3ccc(nc3c2)N(C)N(C)C(=O)[C@@H]2CCCN(N2)C1=O` (single isomer, unassigned) [Compound (32)]: the figures for the Ki on cyclophilin D and on cyclophilin A were 4900 nM and 2200 nM, respectively. Besides, in experiment [1], the “CRC [10 μM]” value stood at 5. Also, the “CRC [10 μM] (ratio vs CsA)” value in experiment [1] (listed as 32) amounted to 0.20.

Turning to `CC(C)[C@@H]1OC(=O)C(C)(C)/C=C/c2ccc3ccc(nc3c2)N(C)NC(=O)[C@@H]2CCCN(N2)C(=O)[C@H](CCC(=O)O)NC1=O` [Compound (62)], the Ki is 9.6 nM on cyclophilin D and 5.6 nM on cyclophilin A.

Consider `C[C@@H]1NC(=O)[C@H](Cc2ccc(C(=O)O)cc2)OC(=O)C(C)(C)/C=C/c2ccc3ccc(nc3c2)N(C)N(C)C(=O)[C@@H]2CCCN(N2)C1=O` [Compound (11)], for which the inhibition constant Ki at cyclophilin D was determined as 83 nM; at cyclophilin A, 280 nM. The “CRC [10 μM]” value in experiment [1] turned out to be 20. Besides, in experiment [1], the “CRC [10 μM] (ratio vs CsA)” value worked out at 0.80.

For `CC(C)NC(=O)c1ccc(C[C@@H]2OC(=O)C(C)(C)/C=C/c3ccc4ccc(nc4c3)N(C)NC(=O)[C@@H]3CCCN(N3)C(=O)[C@H](C)NC2=O)cc1` [Compound (47)], the Ki was 21 nM at cyclophilin D and 27 nM on cyclophilin A. Further, the “CRC [10 μM]” value in experiment [1] came to 17.5. For the same compound, the “CRC [10 μM] (ratio vs CsA)” value in experiment [1] is given as 1.00.

As to `CC(C)[C@@H]1OC(=O)C(C)(C)CCc2ccc3ccc(nc3c2)N(C)NC(=O)[C@@H]2CCCN(N2)C(=O)[C@H](C)NC1=O` [Compound (5)], the Ki at cyclophilin D was over 10 nM; at cyclophilin A, over 10000 nM.
